{"source": "patent US10526347B2", "about": "“3-(3H-imidazo[4,5-B]pyridin-2-yl)-1H-pyrazolo[3,4-B]pyridine and therapeutic uses thereof” (Samumed, LLC, priority 2014, dated 2020)", "format_in_all_cases": "cell-based", "key": {"[1]": {"system": "primary human mesenchymal stem cells (hMSCs)", "assay": "Chondrogenesis induction in primary human mesenchymal stem cells (chondrogenic nodules, Rhodamine B / Nile Red)", "conditions": "6 days; for EC (100% of TGF-beta3 activity): Homo sapiens, Mesenchymal stem cells, 144 h, concentration required to induce chondrogenesis equivalent to TGF-β3 10 ng/mL, read-out: Conc (nM) of 100% TGF-β3 activity; for Max. Activity as % TGF-β3 activity: positive control TGF-β3 10 ng/mL, nodule number normalized to DMSO", "method": "The above synthesized compounds were screened using primary human mesenchymal stem cells (hMSCs) to determine their ability to induce chondrogenesis (process by which cartilage is developed).\nPrimary human mesenchymal stem cells (hMSCs) were purchased from Lonza (Walkersville, Md.) and expanded in Mesenchymal Stem Cell Growth Media (Lonza). Cells between passage 3 and 6 were used for the experiments.\nEach compound was dissolved in DMSO as a 10 mM stock and used to prepare compound source plates. Serial dilution (1:3, 6-point dose-response curves from 2700 nM to 10 nM) and compound transfer was performed using the ECHO 550 (Labcyte, Sunnyvale, Calif.) into 96-well clear bottom assay plates (Greiner Bio-One) with appropriate DMSO backfill for a final DMSO concentration of 0.03%. hMSCs were plated at 20,000 cells/well in 250 μL/well Incomplete Chondrogenic Induction Medium (Lonza; DMEM, dexamethasone, ascorbate, insulin-transferrin-selenium [ITS supplement], gentamycin-amphotericin [GA-1000], sodium pyruvate, proline and L-glutamine). TGF-β3 (10 ng/mL) was used as a positive control for differentiation while negative control wells were treated with 75 nL DMSO for normalization and calculating EC50 values. Cells were incubated at 37° C. and 5% CO2 for 6 days. To image chondrogenic nodules, the cells were fixed using 4% formaldehyde (Electron Microscopy Sciences), and stained with 2 μg/mL Rhodamine B (Sigma-Aldrich) and 20 μM Nile Red (Sigma-Aldrich) [Johnson K., et. al, A Stem Cell-Based Approach to Cartilage Repair, Science, (2012), 336(6082). 717-721]. The nodules imaged (4 images per well at 4× magnification) by excitation at 531 nm and emission at 625 nm and quantified using the CellInsight CX5 (Thermo Scientific). Number of nodules in each well was normalized to the average of 3 DMSO treated wells on the same plate using Excel (Microsoft Inc.). The normalized averages (fold change over DMSO) of 3 replicate wells for each compound concentration were calculated. Due to solubility limitations of some of the compounds, curve fitting was incomplete leading to inaccurate EC50 determinations.\nUsing TGF-β3 as a positive control, the concentration of test compounds required to induce equivalent levels of chondrogenesis is reported. In addition, the maximum activity of each compound and the respective dose that each compound reached maximum chondrogenesis activity is reported."}, "[2]": {"system": "primary human fibroblasts derived from IPF patients (LL29 cells)", "assay": "Inhibition of the fibrotic process in TGF-β1 treated IPF patient fibroblasts (αSMA staining)", "conditions": "Fibroblast, 96 h, LL29 cells treated with TGF-β1 (20 ng/mL), 4 days, read-out: Inhibition of fibrosis EC50", "in_short": "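LL29 IPF lung fibroblasts in F12 with 1% FBS, compound (11-point, 10 μM to 1.87 nM, 0.1% DMSO) plus TGF-β1 20 ng/mL for 4 days at 37° C. αSMA-positive % of SYTOX-negative cells by immunofluorescence imaging, normalized to TGF-β1 wells; EC50 from non-linear regression of triplicates.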"}, "[3]": {"system": "Wnt activity (SW480 colon carcinoma cells stably expressing the Sp5-Luc reporter gene)", "assay": "Sp5-Luc reporter gene screening assay for Wnt activity", "conditions": "Homo sapiens", "in_short": "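The SW480 cells carry a lentiviral luciferase reporter driven by a Sp5 promoter with eight TCF/LEF sites. They were plated at 10,000 cells/well in 10% FCS overnight, then pinned with 50 nl of 3-fold dilutions (10 mM top source concentration) into 50 μl.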"}}, "data": [{"smiles": "CCCC(=O)Nc1cncc(-c2cnc3[nH]nc(-c4nc5c(-c6ccsc6)ccnc5[nH]4)c3c2)c1", "note": "[Compound 249, N-(5-(3-(7-(Thiophen-3-yl)-3H-imidazo[4,5-b]pyridin-2-yl)-1H-pyrazolo[3,4-b]pyridin-5-yl)pyridin-3-yl)butyramide]", "values": [{"measurement": "EC (100% of TGF-beta3 activity)", "setting": "[1]", "result": 31.9, "unit": "nM"}, {"measurement": "EC50", "setting": "[2]", "result": 35, "unit": "nM"}, {"measurement": "IC50", "setting": "[3]", "result": 2.7, "unit": "nM"}]}, {"smiles": "Cc1ccncc1-c1cnc2[nH]nc(-c3nc4c(-c5cc(F)cc(CNS(C)(=O)=O)c5)ccnc4[nH]3)c2c1", "note": "[Compound 393, N-(3-Fluoro-5-(2-(5-(4-methylpyridin-3-yl)-1H-pyrazolo[3,4-b]pyridin-3-yl)-3H-imidazo[4,5-b]pyridin-7-yl)benzyl)methanesulfonamide]", "values": [{"measurement": "Max. Activity as % TGF-β3 activity", "setting": "[1]", "result": 100, "unit": "%"}, {"measurement": "EC (100% of TGF-beta3 activity)", "setting": "[1]", "result": 140, "unit": "nM"}, {"measurement": "EC50", "setting": "[2]", "result": 674, "unit": "nM"}, {"measurement": "IC50", "setting": "[3]", "result": 20.6, "unit": "nM"}]}, {"smiles": "O=C(Nc1cncc(-c2cnc3[nH]nc(-c4nc5c(-c6ccc(F)cc6)ccnc5[nH]4)c3c2)c1)C1CCC1", "note": "[Compound 38, N-(5-(3-(7-(4-Fluorophenyl)-3H-imidazo[4,5-b]pyridin-2-yl)-1H-pyrazolo[3,4-b]pyridin-5-yl)pyridin-3-yl)cyclobutanecarboxamide]", "values": [{"measurement": "EC (100% of TGF-beta3 activity)", "setting": "[1]", "result": 48.6, "unit": "nM"}, {"measurement": "EC50", "setting": "[2]", "result": 118, "unit": "nM"}, {"measurement": "IC50", "setting": "[3]", "result": 11.5, "unit": "nM"}]}, {"smiles": "Cc1cn(-c2ccnc3[nH]c(-c4n[nH]c5ncc(-c6cncc(NC(=O)CC(C)C)c6)cc45)nc23)cn1", "note": "[Compound 160, 3-Methyl-N-(5-(3-(7-(4-methyl-1H-imidazol-1-yl)-3H-imidazo[4,5-b]pyridin-2-yl)-1H-pyrazolo[3,4-b]pyridin-5-yl)pyridin-3-yl)butanamide]", "values": [{"measurement": "EC (100% of TGF-beta3 activity)", "setting": "[1]", "result": 26.8, "unit": "nM"}, {"measurement": "IC50", "setting": "[3]", "result": 8.3, "unit": "nM"}]}, {"smiles": "Fc1cccc(-c2ccnc3[nH]c(-c4n[nH]c5ncc(-c6cn[nH]c6)cc45)nc23)c1", "note": "[Compound 911, 3-(7-(3-Fluorophenyl)-3H-imidazo[4,5-b]pyridin-2-yl)-5-(1H-pyrazol-4-yl)-1H-pyrazolo[3,4-b]pyridine]", "values": [{"measurement": "Max. Activity as % TGF-β3 activity", "setting": "[1]", "result": 100, "unit": "%"}, {"measurement": "EC (100% of TGF-beta3 activity)", "setting": "[1]", "result": 110, "unit": "nM"}, {"measurement": "EC50", "setting": "[2]", "result": 29, "unit": "nM"}, {"measurement": "IC50", "setting": "[3]", "result": 30, "unit": "nM"}]}, {"smiles": "CCC(=O)Nc1cncc(-c2cnc3[nH]nc(-c4nc5c(-c6cccs6)ccnc5[nH]4)c3c2)c1", "note": "[Compound 285, N-(5-(3-(7-(Thiophen-2-yl)-3H-imidazo[4,5-b]pyridin-2-yl)-1H-pyrazolo[3,4-b]pyridin-5-yl)pyridin-3-yl)propionamide]", "values": [{"measurement": "EC (100% of TGF-beta3 activity)", "setting": "[1]", "result": 48.9, "unit": "nM"}, {"measurement": "EC50", "setting": "[2]", "result": "≤ 9", "unit": "nM"}, {"measurement": "IC50", "setting": "[3]", "result": 3.3, "unit": "nM"}]}, {"smiles": "Cc1ccc(-c2ccnc3[nH]c(-c4n[nH]c5ncc(-c6cncc(N)c6)cc45)nc23)s1", "note": "[Compound 339, 5-(3-(7-(5-Methylthiophen-2-yl)-3H-imidazo[4,5-b]pyridin-2-yl)-1H-pyrazolo[3,4-b]pyridin-5-yl)pyridin-3-amine]", "values": [{"measurement": "EC (100% of TGF-beta3 activity)", "setting": "[1]", "result": 43.2, "unit": "nM"}, {"measurement": "EC50", "setting": "[2]", "result": 40, "unit": "nM"}, {"measurement": "IC50", "setting": "[3]", "result": 2.6, "unit": "nM"}]}, {"smiles": "Nc1cncc(-c2cnc3[nH]nc(-c4nc5c(-c6ccccc6F)ccnc5[nH]4)c3c2)c1", "note": "[Compound 45, 5-(3-(7-(2-Fluorophenyl)-3H-imidazo[4,5-b]pyridin-2-yl)-1H-pyrazolo [3,4-b]pyridin-5-yl)pyridin-3-amine]", "values": [{"measurement": "Max. Activity as % TGF-β3 activity", "setting": "[1]", "result": 300, "unit": "%"}, {"measurement": "EC (100% of TGF-beta3 activity)", "setting": "[1]", "result": 59.9, "unit": "nM"}, {"measurement": "EC50", "setting": "[2]", "result": "≤ 9", "unit": "nM"}, {"measurement": "IC50", "setting": "[3]", "result": 3.7, "unit": "nM"}]}, {"smiles": "CCCCC(=O)Nc1cncc(-c2cnc3[nH]nc(-c4nc5c(-c6cc(F)cc(NCCN(C)C)c6)ccnc5[nH]4)c3c2)c1", "note": "[Compound 432, N-(5-(3-(7-(3-((2-(Dimethylamino)ethyl)amino)-5-fluorphenyl)-3H-imidazo[4,5-b]pyridin-2-yl)-1H-pyrazolo[3,4-b]pyridin-5-yl)pyridin-3-yl)pentanamide]", "values": [{"measurement": "EC (100% of TGF-beta3 activity)", "setting": "[1]", "result": 57, "unit": "nM"}, {"measurement": "IC50", "setting": "[3]", "result": 21.7, "unit": "nM"}]}, {"smiles": "CC(C)Nc1cncc(-c2cnc3[nH]nc(-c4nc5c(-c6cccnc6)ccnc5[nH]4)c3c2)c1", "note": "[Compound 75, N-Isopropyl-5-(3-(7-(pyridin-3-yl)-3H-imidazo[4,5-b]pyridin-2-yl)-1H-pyrazolo[3,4-b]pyridin-5-yl)pyridin-3-amine]", "values": [{"measurement": "EC (100% of TGF-beta3 activity)", "setting": "[1]", "result": 58.5, "unit": "nM"}, {"measurement": "IC50", "setting": "[3]", "result": 45.4, "unit": "nM"}]}]}
